# Experimental data as given in patent publication US8138175B2, “Heterocyclyl compounds” (Hoffmann-La Roche Inc., priority 2008, dated 2012).
# Target: T1, human chemokine receptor 2 isoform B (Homo sapiens, UniProt P41597)
# T1 construct: host or cells: CHOK1-CCR2B-A5 (CHO-K1) cells
# T1 sequence (P41597 1-360 isoform P41597-2): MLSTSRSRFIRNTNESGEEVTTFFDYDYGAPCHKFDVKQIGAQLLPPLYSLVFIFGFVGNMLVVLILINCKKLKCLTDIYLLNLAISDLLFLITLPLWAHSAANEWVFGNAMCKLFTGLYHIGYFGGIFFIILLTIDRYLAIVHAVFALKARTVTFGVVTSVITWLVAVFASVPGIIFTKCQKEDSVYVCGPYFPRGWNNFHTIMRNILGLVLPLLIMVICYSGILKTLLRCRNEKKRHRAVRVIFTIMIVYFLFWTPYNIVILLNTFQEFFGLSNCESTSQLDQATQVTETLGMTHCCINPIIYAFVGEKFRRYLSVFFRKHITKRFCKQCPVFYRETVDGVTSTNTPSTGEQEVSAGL
# Assay: Calcium mobilization assay
# Assay type: cell-based
# Settings: Ca mobilization assay for CCR2; CHOK1-CCR2B-A5 cells; antagonist activity against 20 nM MCP-1; FLIPR, Fluo-4
row,IC50,Structure (SMILES)
1,0.053 µM,"CC[C@H]1C(=O)N(CCCN2CCC3(CC3)[C@H](O)C2)CCN1c1ccc(Cl)c(Cl)c1 [Example 87, (S)-4-(3,4-Dichloro-phenyl)-3-ethyl-1-[3-((S)-4-hydroxy-6-aza-spiro[2.5]oct-6-yl)-propyl]-piperazin-2-one]"
2,0.325 µM,"CC[C@@H]1C(=O)N(CCCN2CCC3(CC3)[C@H](O)C2)CCN1c1ccc(Cl)c(Cl)c1 [Example 88, (R)-4-(3,4-dichloro-phenyl)-3-ethyl-1-[3-((S)-4-hydroxy-6-aza-spiro[2.5]oct-6-yl)-propyl]-piperazin-2-one]"
3,0.035 µM,"CC1C(=O)N(CCCN2CCC3(CC3)[C@H](O)C2)CCN1c1cccc(I)c1 (stereo partly drawn) [Example 89, 1-[3-((S)-4-Hydroxy-6-aza-spiro[2.5]oct-6-yl)-propyl]-4-(3-iodo-phenyl)-3-methyl-piperazin-2-one]"
4,0.508 µM,"CC1C(=O)N(CCCN2CCC3(CC3)[C@H](O)C2)CCN1c1cccc(-c2ccccc2)c1 (stereo partly drawn) [Example 90, 4-Biphenyl-3-yl-1-[3-((S)-4-hydroxy-6-aza-spiro[2.5]oct-6-yl)-propyl]-3-methyl-piperazin-2-one]"
5,0.008 µM,"C[C@H]1C(=O)N(CCCCN2CCC3(CC3)[C@H](O)C2)CCN1c1ccc(Cl)c(Cl)c1 [Example 94, (S)-4-(3,4-Dichloro-phenyl)-1-[4-((S)-4-hydroxy-6-aza-spiro[2.5]oct-6-yl)-butyl]-3-methyl-piperazin-2-one]"
6,0.013 µM,"C[C@H]1C(=O)N(CCCCN2CCC3(CC3)[C@H](O)C2)CCN1c1cccc(OC(F)(F)F)c1 [Example 95, (S)-1-[4-((S)-4-Hydroxy-6-aza-spiro[2.5]oct-6-yl)-butyl]-3-methyl-4-(3-trifluoromethoxy-phenyl)-piperazin-2-one]"
7,0.026 µM,"C[C@H]1C(=O)N(CCCN2CCC3(CC3)[C@H](O)C2)CCN1c1ccc(C(F)(F)F)cc1 [Example 96, (S)-1-[3-((S)-4-Hydroxy-6-aza-spiro[2.5]oct-6-yl)-propyl]-3-methyl-4-(4-trifluoromethyl-phenyl)-piperazin-2-one]"
8,0.008 µM,"C[C@H]1C(=O)N(C[C@@H](O)CN2CCC3(CC3)[C@H](O)C2)CCN1c1ccc(Cl)c(Cl)c1 [Example 99, (S)-4-(3,4-dichloro-phenyl)-1-[(S)-2-hydroxy-3-((S)-4-hydroxy-6-aza-spiro[2.5]oct-6-yl)-propyl]-3-methyl-piperazin-2-one]"
9,0.334 µM,"C[C@@H]1C(=O)N(C[C@H](O)CN2CCC3(CC3)[C@H](O)C2)CCN1c1ccc(Cl)c(Cl)c1 [Example 100, (R)-4-(3,4-Dichloro-phenyl)-1-[(R)-2-hydroxy-3-((S)-4-hydroxy-6-aza-spiro[2.5]oct-6-yl)-propyl]-3-methyl-piperazin-2-one]"
10,0.073 µM,"C[C@H]1C(=O)N(C[C@H](O)CN2CCC3(CC3)[C@H](O)C2)CCN1c1ccc(Cl)c(Cl)c1 [Example 101, (S)-4-(3,4-dichloro-phenyl)-1-[(R)-2-hydroxy-3-((S)-4-hydroxy-6-aza-spiro[2.5]oct-6-yl)-propyl]-3-methyl-piperazin-2-one]"
11,0.006 µM,"C[C@H]1C(=O)N(CCCN2CCC3(CC3)[C@H](O)C2)CCN1c1ccc(C(F)(F)F)c(F)c1 [Example 102, (S)-4-(3-Fluoro-4-trifluoromethyl-phenyl)-1-[3-((S)-4-hydroxy-6-aza-spiro[2.5]oct-6-yl)-propyl]-3-methyl-piperazin-2-one]"
12,0.092 µM,"C[C@@H]1C(=O)N(CCCN2CCC3(CC3)[C@H](O)C2)CCN1c1ccc(C(F)(F)F)c(F)c1 [Example 103, (R)-4-(3-fluoro-4-trifluoromethyl-phenyl)-1-[3-((S)-4-hydroxy-6-aza-spiro[2.5]oct-6-yl)-propyl]-3-methyl-piperazin-2-one]"
13,0.203 µM,"C[C@H]1C(=O)N(C[C@H](O)CCN2CCC3(CC3)[C@H](O)C2)CCN1c1ccc(Cl)c(Cl)c1 [Example 104, (S)-4-(3,4-Dichloro-phenyl)-1-[(R)-2-hydroxy-4-((S)-4-hydroxy-6-aza-spiro[2.5]oct-6-yl)-butyl]-3-methyl-piperazin-2-one]"
14,0.027 µM,"C[C@H]1C(=O)N(C[C@@H](O)CCN2CCC3(CC3)[C@H](O)C2)CCN1c1ccc(Cl)c(Cl)c1 [Example 105, (S)-4-(3,4-Dichloro-phenyl)-1-[(S)-2-hydroxy-4-((S)-4-hydroxy-6-aza-spiro[2.5]oct-6-yl)-butyl]-3-methyl-piperazin-2-one]"
15,0.015 µM,"CC1C(=O)N(CC[C@H](O)CN2CCC3(CC3)[C@H](O)C2)CCN1c1ccc(Cl)c(Cl)c1 (stereo partly drawn) [Example 107, 4-(3,4-Dichloro-phenyl)-1-[(S)-3-hydroxy-4-((S)-4-hydroxy-6-aza-spiro[2.5]oct-6-yl)-butyl]-3-methyl-piperazin-2-one]"

row,Structure (SMILES),IC50
1,"C[C@H]1C(=O)N(CCCN2CCC3(CC3)[C@H](O)C2)CCN1c1ccc(F)c(OC(F)(F)F)c1 [Example 86, (S)-4-(4-Fluoro-3-trifluoromethoxy-phenyl)-1-[3-((S)-4-hydroxy-6-aza-spiro[2.5]oct-6-yl)-propyl]-3-methyl-piperazin-2-one]",0.033 µM
